Assay [1] has as its target Bcl-2 protein (histag-Bcl-2, UniProtKB P10415) (Homo sapiens (Human), UniProt P10415). The assay can be described thus: Inhibition of Bcl-2 by the fluorescence polarisation technique. The format is binding. As to conditions: incubation for 2 hours, read-out: IC50 (nM) Bcl-2 FP. In a few lines:
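In pH 7.4 buffer (Hepes 10 mM, NaCl 150 mM, Tween20 0.05%), test compounds at increasing concentrations competed with a fluorescein peptide (1.00×10^−8 M final) for histag-Bcl-2 (2.50×10^−8 M final). Readout was fluorescence polarisation after a 2 h incubation.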
Background: In fluorescence polarisation assays a small probe gives low polarisation when free and higher when bound to something large.

Assay [2] has as its system RS4;11 leukaemia tumour line. The assay can be described thus: In vitro cytotoxicity (Microculture Tetrazolium Assay). The format is cell-based. Particulars: RS4;11 cells, exposed for 48 hours, cell viability, read-out: IC50 (nM) MTT RS4;11. Here is the method:
The cytotoxicity studies were carried out on the RS4;11 leukaemia tumour line.
The cells are distributed onto microplates and exposed to the test compounds for 48 hours.
The cell viability is then quantified by a colorimetric assay, the Microculture Tetrazolium Assay (Cancer Res., 1987, 47, 939-942).

Where a name gives a salt, the structure may show the parent alone. Read-outs that look alike come from different tables or passages of the source.

Sequence of Bcl-2 protein (P10415 whole entry): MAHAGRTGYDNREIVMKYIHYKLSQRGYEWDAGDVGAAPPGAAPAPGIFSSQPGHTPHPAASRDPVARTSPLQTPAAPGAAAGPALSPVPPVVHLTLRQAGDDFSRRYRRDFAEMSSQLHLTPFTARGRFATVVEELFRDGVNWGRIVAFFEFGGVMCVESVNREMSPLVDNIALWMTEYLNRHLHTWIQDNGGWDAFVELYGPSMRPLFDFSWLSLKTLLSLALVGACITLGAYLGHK

As for `Cc1c(C(=O)N(c2ccccc2)c2cnc3c(ccn3C)c2)cc(-c2cc3c(cc2C(=O)N2Cc4ccccc4C[C@H]2CN2CCOCC2)OCO3)n1C` [Example 65, 1,2-Dimethyl-N-(1-methyl-1H-pyrrolo[2,3-b]pyridin-5-yl)-5-(6-{[(3S)-3-(morpholin-4-ylmethyl)-3,4-dihydroisoquinolin-2(1H)-yl]carbonyl}-1,3-benzodioxol-5-yl)-N-phenyl-1H-pyrrole-3-carboxamide hydrochloride], the IC50 came out at 21.9 nM in assay [1] and 113 nM in assay [2] (Homo sapiens, RS4-11, 48 h).
For the molecule `Cc1ccc(OC(=O)NCc2ccc(-c3cc(C(=O)N(C)c4ccc(O)cc4)c(C)n3C)c(C(=O)N3Cc4ccccc4C[C@H]3C)c2)cc1` [Example 66, 4-Methylphenyl (4-{4-[(4-hydroxyphenyl)(methyl)carbamoyl]-1,5-dimethyl-1H-pyrrol-2-yl}-3-{[(3R)-3-methyl-3,4-dihydroisoquinolin-2(1H)-yl]-carbonyl}benzyl)carbamate], the IC50 in assay [1] is 16.9 nM; in assay [2] (Homo sapiens), 241 nM.
For the molecule `Cc1c(C(=O)N(c2ccc(O)cc2)c2cnn(C)c2)cc(-c2cc(F)c(O)cc2C(=O)N2Cc3ccccc3C[C@H]2C)n1C` [Example 68, 5-(5-Fluoro-4-hydroxy-2-{[(3R)-3-methyl-3,4-dihydroisoquinolin-2(1H)-yl]carbonyl}phenyl)-N-(4-hydroxyphenyl)-1,2-dimethyl-N-(1-methyl-1H-pyrazol-4-yl)-1H-pyrrole-3-carboxamide], the IC50 in assay [1] was found to be 2.1 nM; in assay [2] (Homo sapiens, RS4-11, 48 h), 20.7 nM.
The corresponding values for `Cc1c(C(=O)N(c2ccc(O)cc2)c2cnc3c(ccn3C)c2)cc(-c2cc3c(cc2C(=O)N2Cc4ccccc4C[C@H]2CN2CCN(C)CC2)OCO3)n1C` [Example 69, N-(4-Hydroxyphenyl)-1,2-dimethyl-5-(6-{[(3S)-3-[(4-methylpiperazin-1-yl)methyl]-3,4-dihydroisoquinolin-2(1H)-yl]carbonyl}-1,3-benzodioxol-5-yl)-N-(1-methyl-1H-pyrrolo[2,3-b]pyridin-5-yl)-1H-pyrrole-3-carboxamide hydrochloride] are 5.3 nM and 3.68 nM.
With `Cc1c(C(=O)N(c2ccncc2)c2ccc(O)cc2)cc(-c2cc3c(cc2C(=O)N2Cc4ccccc4C[C@H]2CN2CCN(C)CC2)OCO3)n1C` [Example 70, N-(4-Hydroxyphenyl)-1,2-dimethy-5-(6-{[(3S)-3-[(4-methylpiperazin-1-yl)methyl]-3,4-dihydroisoquinolin-2(1H)-yl]carbonyl}4,3-benodioxol-5-yl)-N-(pyridin-4-yl)-1H-pyrrole-3-carboxamide hydrochloride], the IC50 in assay [1] was found to be 8.5 nM; in assay [2], 63.5 nM.
In the case of `Cc1c(C(=O)N(c2ccc(O)cc2)c2ccc3c(c2)ncn3C)cc(-c2cc(Cl)ccc2C(=O)N2Cc3ccccc3C[C@H]2CN2CCOCC2)n1C` [Example 72, 5-(5-Chloro-2-{[(3S)-3-(morpholin-4-ylmethyl)-3,4-dihydroisoquinolin-2(1H)-yl]carbonyl}phenyl)-N-(4-hydroxyphenyl)-1,2-dimethyl-N-(1-methyl-1H-benzimidazol-5-yl)-1H-pyrrole-3-carboxamide], the IC50 is 7.7 nM in assay [1] and 43.6 nM in assay [2] (Homo sapiens, RS4-11, 48 h).
The corresponding values for `Cc1c(C(=O)N(c2ccncc2)c2ccc(O)cc2)cc(-c2cc3c(cc2C(=O)N2Cc4ccccc4C[C@H]2CN2CCOCC2)OCO3)n1C` [Example 73, N-(4-Hydroxyphenyl)-1,2-dimethyl-5-(6-{[(3S)-3-(morpholin-4-ylmethyl)-3,4-dihydroisoquinolin-2(1H)-yl]carbonyl}-1,3-benzodioxol-5-yl)-N-(pyridin-4-yl)-1H-pyrrole-3-carboxamide dihydrochloride] are 8 nM and 42.6 nM.
The matching figures for `Cc1c(C(=O)N(c2ccncc2)c2ccc(O)cc2)cc(-c2cc(Cl)ccc2C(=O)N2Cc3ccccc3C[C@H]2CN2CCOCC2)n1C` [Example 74, 5-(5-Chloro-2-{[(3S)-3-(morpholin-4-ylmethyl)-3,4-dihydroisoquinolin-2(1H)-yl]carbonyl}phenyl)-N-(4-hydroxyphenyl)-1,2-dimethyl-N-(pyridin-4-yl)-1H-pyrrole-3-carboxamide hydrochloride]: 4 nM and 45.4 nM.
Take `Cn1cc(N(C(=O)c2cc(-c3cc4c(cc3C(=O)N3Cc5ccccc5C[C@H]3CN3CCOCC3)OCO4)n(C)c2C(F)(F)F)c2ccc(O)cc2)cn1` [Example 75, N-(4-Hydroxyphenyl)-1-methyl-N-(1-methyl-4H-pyrazol-4-yl)-5-(6-{[(3S)-3-(morpholin-4-ylmethyl)-3,4-dihydroisoquinolin-2(1TH-yl]carbonyl}-1,3-benzodioxol-5-yl)-2-(trifluoromethyl)-1H-pyrrole-3-carboxamide hydrochloride]: the figures for the IC50 in assay [1] and in assay [2] were 52.9 nM and 367 nM, respectively.
On to `C[C@@H]1Cc2ccccc2CN1C(=O)c1cc2c(cc1-c1cc(C(=O)N(c3ccc(O)cc3)c3cnn(C)c3)c(CN3CCOCC3)n1C)OCO2` [Example 82, N-(4-Hydroxyphenyl)-1-methyl-5-(6-{[(3R)-3-methyl-3,4-dihydroisoquinolin-2(1H)-yl]carbonyl}-1,3-benzodioxol-5-yl)-N-(1-methyl-1H-pyrazol-4-yl)-2-(morpholin-4-ylmethyl)-1H-pyrrole-3-carboxamide], for which the IC50 was 19.5 nM in assay [1] and 427 nM in assay [2] (Homo sapiens, RS4-11, 48 h).
In the case of `COCCc1c(C(=O)N(c2ccc(O)cc2)c2cnc3c(ccn3C)c2)cc(-c2cc3c(cc2C(=O)N2Cc4ccccc4C[C@H]2CN2CCOCC2)OCO3)n1C` [Example 88, N-(4-Hydroxyphenyl)-2-(2-methoxyethyl)-1-methyl-N-(1-methyl-1H-pyrrolo[2,3-b]pyridin-5-yl)-5-(6-{[(3S)-3-(morpholin-4-ylmethyl)-3,4-dihydroisoquinolin-2(1H)-yl]carbonyl}4,3-benzodioxol-5-yl)-1H-pyrrole-3-carboxamide hydrochloride], the IC50 is 15.9 nM in assay [1] and 69.6 nM in assay [2].
As for `CCn1c(-c2cc3c(cc2C(=O)N2Cc4ccccc4C[C@H]2CN2CCOCC2)OCO3)cc(C(=O)N(c2ccc(O)cc2)c2cnn(C)c2)c1C` [Example 92, 1-Ethyl-N-(4-hydroxyphenyl)-2-methyl-N-(1-methyl-1H-pyrazol-4-yl)-5-(6-{[(3S)-3-(morpholin-4-ylmethyl)-3,4-dihydroisoquinolin-2(1H)-yl]carbonyl}-1,3-benzodioxol-5-yl)-1H-pyrrole-3-carboxamide hydrochloride], the IC50 in assay [1] worked out at 8.4 nM; in assay [2] (Homo sapiens, RS4-11, 48 h) it was 37.8 nM.
Take `COCCn1c(-c2cc3c(cc2C(=O)N2Cc4ccccc4C[C@H]2CN2CCOCC2)OCO3)cc(C(=O)N(c2ccc(O)cc2)c2cnn(C)c2)c1C` [Example 93, N-(4-Hydroxyphenyl)-1-(2-methoxyethyl)-2-methyl-N-(1-methyl-1H-pyrazol-4-yl)-5-(6-{[(3S)-3-(morpholin-4-ylmethyl)-3,4-dihydroisoquinolin-2(1H)-yl]carbonyl}-1,3-benzodioxol-5-yl)-1H-pyrrole-3-carboxamide hydrochloride]: the IC50 in assay [1] came to 19.7 nM; in assay [2] (Homo sapiens, RS4-11, 48 h), 368 nM.
The corresponding values for `Cc1c(C(=O)N(c2ccc(O)cc2)c2cnn(C)c2)cc(-c2cc3c(cc2C(=O)N2Cc4ccccc4C[C@H]2CN2CCOCC2)OCO3)n1CCF` [Example 94, 1-(2-Fluoroethyl)-N-(4-hydroxyphenyl)-2-methyl-N-(1-methyl-1H-pyrazol-4-yl)-5-(6-{[(3S)-3-(morpholin-4-ylmethyl)-3,4-dihydroisoquinolin-2(1H)-yl]carbonyl}-1,3-benzodioxol-5-yl)-1H-pyrrole-3-carboxamide hydrochloride] are 8.6 nM and 104 nM.
The matching figures for `Cc1c(C(=O)N(c2ccc(O)cc2)c2cnn(C)c2)cc(-c2cc3c(cc2C(=O)N2Cc4ccccc4C[C@H]2CN2CCOCC2)OCO3)n1CC(F)F` [Example 95, 1-(2,2-Difluoroethyl)-N-(4-hydroxyphenyl)-2-methyl-N-(1-methyl-1H-pyrazol-4-yl)-5-(6-{[(3S)-3-(morpholin-4-ylmethyl)-3,4-dihydroisoquinolin-2(1H)-yl]carbonyl}-1,3-benzodioxol-5-yl)-1H-pyrrole-3-carboxamide hydrochloride]: 7 nM and 174 nM.
Regarding `Cc1c(C(=O)N(c2ccc(O)cc2)c2cnn(C)c2)cc(-c2cc3c(cc2C(=O)N2Cc4ccccc4C[C@H]2C)OCO3)n1CCN1CCOCC1` [Example 96, N-(4-Hydroxyphenyl)-2-methyl-5-(6-{[(3R)-3-methyl-3,4-dihydroisoquinolin-2(1H)-yl]carbonyl}-1,3-benzodioxol-5-yl)-N-(1-methyl-1H-pyrazol-4-yl)-1-[2-(morpholin-4-yl)ethyl]-1H-pyrrole-3-carboxamide hydrochloride], the IC50 in assay [1] stood at 13.5 nM; in assay [2] (Homo sapiens, RS4-11, 48 h), 161 nM.
In the case of `Cc1c(C(=O)N(c2ccccc2)c2ccc(O)cc2)cc(-c2cc3c(cc2C(=O)N2Cc4ccccc4C[C@H]2C)OCO3)n1CCN1CCOCC1` [Example 97, N-(4-Hydroxyphenyl)-2-methyl-5-(6-{[(3R)-3-methyl-3,4-dihydroisoquinolin-2(1H)-yl]carbonyl}-1,3-benzodioxol-5-yl)-1-[2-(morpholin-4-yl)ethyl]-N-phenyl-1H-pyrrole-3-carboxamide hydrochloride], the IC50 in assay [1] came out at 19 nM; in assay [2] (Homo sapiens, RS4-11, 48 h) it was 98 nM.

For orientation: IC50 means the point on the concentration scale where inhibition reaches its midpoint.

The values are drawn from US9108983B2, “Pyrrole compounds, a process for their preparation and pharmaceutical compositions containing them” (LES LABORATOIRES SERVIER, priority 2013, dated 2015).
